We go through 7 molecules from ChEMBL document CHEMBL3867428, “Eremophilane Sesquiterpenes from an Endophytic Fungus Periconia Species” (J Nat Prod, 2016).

As a reminder, the IC50 is the concentration that gives 50% inhibition. Broadly, the inhibition is the percentage by which the read-out fell short of the control.

A short description of experiment [1]: Cytotoxicity against human MCF7 cells assessed as reduction in cell viability after 96 hrs by MTT assay. The experiment is classed as functional, cell-based. The following applies: MCF7, 96 h.
Experiment [2] is described as follows: Cytotoxicity against human HeLa cells assessed as reduction in cell viability after 96 hrs by MTT assay. The experiment is classed as functional, cell-based. (Tetrazolium dyes change colour on reduction, which living cells bring about.)
For experiment [3], the system named is Human immunodeficiency virus 1. Nature of the experiment: Antiviral activity against VSV-G pseudotyped HIV1 infected in human SupT1 cells after 48 hrs by luciferase reporter gene assay. The format is functional, cell-based. Particulars: Human immunodeficiency virus 1, SUP-T1, 48 h.
Experiment [4] in a line: Antiinflammatory activity in […] cells assessed as inhibition of LPS-induced NO production at 1 uM preincubated with compound followed by LPS stimulation after 24 hrs. The format is functional. The following applies: Mus musculus, BV-2.

As to `C=C(C)[C@@]1(O)C[C@@]2(C)C(=C[C@@H]1O)C=CC(=O)[C@H]2C`, the IC50 in experiment [1] is 17.9 µM.

Take `C[C@H]1C(=O)C=CC2=C[C@@H](O)[C@H](O)C[C@@]21C`: the IC50 in experiment [2] was 16.5 µM; in experiment [3], 11 µM.

Take `C=C(C)[C@]1(O)C[C@@]2(C)C(=C[C@H]1O)C=CC(=O)[C@@H]2C`: the inhibition at 1 µM in experiment [4] is 10.2%.

As to `C=C(C)[C@@H]1C[C@@]2(C)C(=C[C@@H](O)[C@H](O)[C@@H]2C)[C@@H](O)[C@H]1O`, the inhibition at 1 µM in experiment [4] came to 18.3%.

`C[C@@H]1C(=O)C=CC2=C[C@@H](O)[C@H](O)C[C@@]21C`: the inhibition at 1 µM in experiment [4] was 16.1%.

As for `COc1cc(/C=C/C(=O)CC(=O)/C=C/c2ccc(O)c(OC)c2)ccc1O` [CURCUMIN], in experiment [4], the inhibition at 1 µM amounted to 12.9%.

In the case of `CC(=O)O[C@H]1C(=O)[C@@]2(C)[C@H]([C@H](OC(=O)c3ccccc3)[C@]3(O)C[C@H](OC(=O)[C@H](O)[C@@H](NC(=O)c4ccccc4)c4ccccc4)C(C)=C1C3(C)C)[C@]1(OC(C)=O)CO[C@@H]1C[C@@H]2O` [PACLITAXEL], the values for the IC50 in experiment [1] and in experiment [2] were 0.0002 µM and 0.0064 µM, respectively.
